The source of these data is patent US6316437A, “Spirohydantoin compounds and uses thereof” (Merck & Co., Inc., priority 2000, dated 2001).

Assay [1] deals with T1, human alpha 1a adrenergic receptor (Homo sapiens, UniProt P35348).
T1 sequence (P35348 1-466): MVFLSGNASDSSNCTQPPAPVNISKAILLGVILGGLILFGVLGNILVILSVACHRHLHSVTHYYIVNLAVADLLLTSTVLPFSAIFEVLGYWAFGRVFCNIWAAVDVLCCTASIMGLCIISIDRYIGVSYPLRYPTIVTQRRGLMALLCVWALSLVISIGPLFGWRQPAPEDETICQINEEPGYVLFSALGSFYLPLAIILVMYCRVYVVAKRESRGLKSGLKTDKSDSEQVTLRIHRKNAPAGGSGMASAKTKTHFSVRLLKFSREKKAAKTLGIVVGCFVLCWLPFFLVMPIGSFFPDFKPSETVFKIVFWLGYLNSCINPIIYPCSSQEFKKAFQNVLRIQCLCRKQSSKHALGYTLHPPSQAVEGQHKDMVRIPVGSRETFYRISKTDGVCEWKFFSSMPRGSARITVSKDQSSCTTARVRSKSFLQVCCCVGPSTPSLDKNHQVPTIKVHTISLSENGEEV
Put plainly: Alpha 1a Adrenergic Receptor Binding (competition binding, [125I]-HEAT). Conditions: human alpha 1a membranes, [125I]-HEAT competition, room temperature, one hour. The method, then: Screening Assay: Alpha 1a Adrenergic Receptor Binding
Membranes prepared from the stably transfected human alpha 1a cell line (ATCC CRL 11140) were used to identify compounds that bind to the human alpha 1a adrenergic receptor. These competition binding reactions (total volume=200 μl) contained 50 mM Tris-HCl pH. 7.4, 5 mM EDTA, 150 mM NaCl, 100 pM [^125 I]-HEAT, membranes prepared from the alpha 1a cell line and increasing amounts of unlabeled ligand. Reactions were incubated at room temperature for one hour with shaking. Reactions were filtered onto Whatman GF/C glass fiber filters with a Inotec 96 well cell harvester. Filters were washed three times with ice cold buffer and bound radioactivity was determined (Ki).

In assay [2] the target is T2, human alpha 1d adrenergic receptor (Homo sapiens, UniProt P25100).
T2 construct: host or cells: stably transfected cell line
T2 sequence (P25100 1-572): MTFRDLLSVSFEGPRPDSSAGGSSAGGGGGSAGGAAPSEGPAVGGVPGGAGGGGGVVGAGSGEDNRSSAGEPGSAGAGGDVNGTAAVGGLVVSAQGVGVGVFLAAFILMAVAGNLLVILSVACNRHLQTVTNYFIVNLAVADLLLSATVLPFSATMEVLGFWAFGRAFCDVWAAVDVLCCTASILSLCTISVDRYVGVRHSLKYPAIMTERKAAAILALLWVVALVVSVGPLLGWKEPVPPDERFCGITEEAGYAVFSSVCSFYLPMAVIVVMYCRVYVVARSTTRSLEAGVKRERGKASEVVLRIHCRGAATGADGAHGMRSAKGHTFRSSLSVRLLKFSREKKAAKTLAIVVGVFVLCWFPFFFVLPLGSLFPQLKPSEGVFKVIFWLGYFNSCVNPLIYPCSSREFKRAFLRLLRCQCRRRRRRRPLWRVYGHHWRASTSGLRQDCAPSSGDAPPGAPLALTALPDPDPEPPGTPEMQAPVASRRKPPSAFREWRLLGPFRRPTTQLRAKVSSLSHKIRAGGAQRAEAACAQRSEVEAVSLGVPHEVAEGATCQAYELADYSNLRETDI
Put plainly: Selective Binding Assay, alpha 1d (competition binding, [125I]-HEAT). Conditions: alpha 1a versus alpha 1d, [125I]-HEAT competition binding. On the procedure:
(§1) Membranes prepared from stably transfected human alpha 1d and alpha 1b cell lines (ATCC CRL 11138 and CRL 11139, respectively) were used to identify compounds that selectively bind to the human alpha 1a adrenergic receptor. These competition binding reactions (total volume=200 μl) contained 50 mM Tris-HCl pH. 7.4, 5 mM EDTA, 150 mM NaCl, 100 pM [^125 I]-HEAT, membranes prepared from cell lines transfected with the respective alpha 1 subtype expression plasmid and increasing amounts of unlabeled ligand. Reactions were incubated at room temperature for one hour with shaking. Reactions were filtered onto Whatman GF/C glass fiber filters with a Inotec 96 well cell harvester. Filters were washed three times with ice cold buffer and bound radioactivity was determined (Ki).

In assay [3] the target is T3, human alpha 1b adrenergic receptor (Homo sapiens, UniProt P35368).
T3 construct: host or cells: stably transfected cell line
T3 sequence (P35368 1-520): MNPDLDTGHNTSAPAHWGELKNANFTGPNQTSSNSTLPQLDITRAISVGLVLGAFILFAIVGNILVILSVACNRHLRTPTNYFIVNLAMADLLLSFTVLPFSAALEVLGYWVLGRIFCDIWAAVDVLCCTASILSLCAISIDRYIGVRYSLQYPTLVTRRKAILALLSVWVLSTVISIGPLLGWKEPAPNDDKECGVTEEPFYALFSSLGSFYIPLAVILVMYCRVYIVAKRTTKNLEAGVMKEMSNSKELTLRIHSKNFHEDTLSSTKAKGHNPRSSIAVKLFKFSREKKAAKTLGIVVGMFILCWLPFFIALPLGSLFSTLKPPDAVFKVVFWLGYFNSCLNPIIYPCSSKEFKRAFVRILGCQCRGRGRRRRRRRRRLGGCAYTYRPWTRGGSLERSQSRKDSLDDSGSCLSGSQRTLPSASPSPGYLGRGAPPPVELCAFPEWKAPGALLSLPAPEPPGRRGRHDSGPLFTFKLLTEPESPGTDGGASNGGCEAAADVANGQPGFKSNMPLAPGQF
Put plainly: Selective Binding Assay, alpha 1b (competition binding, [125I]-HEAT). Conditions: alpha 1a versus alpha 1b, [125I]-HEAT competition binding. The method, then: as §1

Counter-ions that a name gives are not always drawn. Like-named read-outs stand apart in the source and are kept apart here. Bounds are passed on as bounds.

In the case of `O=C1NC2(CCc3cc(F)ccc32)C(=O)N1CCCN1CCC2(CCc3ccccc32)CC1` (racemic) [Compound 12, (+/ -)-1-{3-{Spiro[indano-1,4'-piperidin]-1-yl}propyl}-5'-fluoro-spiro[imidazoline-4,1'indan]-2,5-dione hydrochloride], in assay [1] (alpha 1a Ki), the inhibition constant Ki (commonly the equilibrium dissociation constant of an inhibitor or competing ligand from its target) was < 0.01 µM. `Cl.O=C1Nc2ccc(Cl)cc2C2(CCN(CCCN3C(=O)NC4(CCc5cc(F)ccc54)C3=O)CC2)O1` (racemic) [Compound 15, (+/ -)-1-{3-{6-Chlorospiro[4H-3,1-benzoxazine-4,4'-piperidin]-2(1H)-on-1'-yl}propyl}-5'-fluoro-spiro[imidazolidine-4,1'indan]-2,5-dione hydrochloride]: in assay [2], the “fold more selective in binding to alpha 1a receptors versus binding to the alpha 1d receptors” value (shortened to “fold more selective … to the alpha 1d receptors”) is reported as “at least 10 fold”. For the same molecule, the Ki in assay [1] (alpha 1a Ki) was < 0.1 µM. Moreover, in assay [3], the “fold more selective in binding to alpha 1a receptors versus binding to the alpha 1b receptors” value (“fold more selective … to the alpha 1b receptors” for short) is listed as “at least 10 fold”. In the case of `N#Cc1cc(F)ccc1C1CCN(CCCN2C(=O)NC3(CCc4cc(F)c(F)cc43)C2=O)CC1` (racemic) [Compound 18, (+/ -)-1-{3-[4-(4-Fluoro-2-cyanophenyl)piperidin-1-yl]propyl}-5',6'-difluoro-spiro[imidazolidine-4,1'indan]-2,5-dione hydrochloride], the Ki in assay [1] (read-out: alpha 1a Ki) was < 0.01 µM.

As for `N#Cc1cc(F)ccc1C1CCN(CCCN2C(=O)NC3(CCc4cc(Cl)ccc43)C2=O)CC1` (racemic) [Compound 23, (+/ -)-1-{3-[4-(4-Fluoro-2-cyanophenyl)piperidin-1-yl]propyl}-5'-chloro-spiro[imidazolidine-4,1'indan]-2,5-dione hydrochloride], the Ki in assay [1] (read-out: alpha 1a Ki) is < 0.01 µM. In the case of `O=C1Nc2ccc(Cl)cc2C2(CCN(CCCN3C(=O)NC4(CCc5cc(Cl)ccc54)C3=O)CC2)O1` (racemic) [Compound 29, (+/ -)-1-{3-{6-Chlorospiro[4H-3,1-benzoxazine-4,4'-piperidin]-2(1H)-on-1'-yl}propyl}-5'-chloro-spiro[imidazolidine-4,1'indan]-2,5-dione hydrochloride], the Ki in assay [1] (alpha 1a Ki) is < 0.01 µM. The same measure, in the same setting: for `Cc1ccc2c(c1)CCC21NC(=O)N(CCCN2CCC3(CCc4ccccc43)CC2)C1=O` (racemic) [Compound 33, (+/ -)-1-{3-{Spiro[indano-1,4'-piperidin]-1-yl}propyl}-5'-methyl-spiro[imidazolidine-4,1'indan]-2,5-dione hydrochloride] the value was < 0.01 µM. Take `Cc1ccc2c(c1)CCC21NC(=O)N(CCCN2CCC(c3ccc(F)cc3C#N)CC2)C1=O` (racemic) [Compound 36, (+/ -)-1-{3-[4-(4-Fluoro-2-cyanophenyl)piperidin-1-yl]propyl}3-5'-methyl-spiro[imidazolidine-4,1'indan]-2,5-dione hydrochloride]: in assay [1] (read-out: alpha 1a Ki), the Ki was < 0.01 µM.

In the case of `N#Cc1cc(F)ccc1C1CCN(CCCN2C(=O)NC3(CCSc4cc(F)ccc43)C2=O)CC1` (racemic) [Compound 45, (+/ -)-1'-{3-[4-(4-Fluoro-2-cyano-phenyl)piperidin-1-yl]propyl}-7-fluoro-2,3-dihydro-spiro[4H-1-benzothiopyran-4,4'-imidazolidine]-2',5'-dione hydrochloride], the Ki in assay [1] (read-out: alpha 1a Ki) is < 0.01 µM.

On to `Cl.N#CC1(c2ccccc2)CCN(CCCN2C(=O)NC3(CCCCc4ccc(F)cc43)C2=O)CC1` (racemic) [Compound 48, (+/ -)-1'-[3-(4-Cyano-4-phenylpiperidin-1-yl)propyl]-3-fluoro-6,7,8,9-tetrahydro-spiro[5H-benzocycloheptene-5,4'-imidazolidine]-2',5'-dione hydrochloride], for which the “fold more selective … to the alpha 1d receptors” value in assay [2] is “at least 10 fold”. In assay [3], the “fold more selective … to the alpha 1b receptors” value is on record as “at least 10 fold”. For the molecule `N#Cc1cc(F)ccc1C1CCN(CCCN2C(=O)NC3(CCCOc4cc(F)ccc43)C2=O)CC1` (racemic) [Compound 50, (+/ -)-1-{3-[4-(4-fluoro-2-cyano-phenyl)piperidin-1-yl]propyl}-8-fluoro-2,3,4,5-tetrahydro-spiro[1-benzoxepin-5(2H),4'-imidazolidine]-2',5'-dione hydrochloride], the Ki in assay [1] (read-out: alpha 1a Ki) is < 0.01 µM. For the molecule `CC(CCN1C(=O)NC2(CCc3cc(Cl)ccc32)C1=O)N1CCC(c2ccc(F)cc2)CC1.Cl` (racemic) [Compound 51, (+/ -)-1-{3-[4-(4-fluorophenyl)piperidin-1-yl]butyl}-5'-chloro-spiro[imidazolidine-4,1'indan]-2,5-dione hydrochloride], in assay [2], the “fold more selective … to the alpha 1d receptors” value is “at least 10 fold”. In addition, in assay [3], the “fold more selective … to the alpha 1b receptors” value is on record as “at least 10 fold”. Consider `Cc1ccc2c(c1)CCC21NC(=O)N(CCCN2CCC3(CCc4ccccc43)CC2)C1=O` (single isomer, unassigned; (+)) [Compound 35, (+)-1-{3-{spiro[indano-1,4'-piperidin]-1-yl}propyl}-5'-methyl-spiro[imidazolidine-4,1'indan]-2,5-dione], for which the Ki in assay [1] (alpha 1a Ki) is < 0.01 µM. As for `O=C1NC2(CCOc3cc(F)ccc32)C(=O)N1CCCN1CCC(c2ccc(F)cc2)CC1` (single isomer, unassigned; (+)) [Compound 42, (+)-1'-{3-[4-(4-fluorophenyl)piperidin-1-yl]propyl}-7-fluoro-2,3-dihydro-spiro[4H-1-benzopyran-4,4'-imidazolidine]-2',5'-dione], in assay [1] (read-out: alpha 1a Ki), the inhibition constant (Ki) is < 0.01 µM. `N#CC1(c2ccccc2)CCN(CCCN2C(=O)NC3(CCc4cc(F)ccc43)C2=O)CC1` (stereo not shown) [Compound 10]: the Ki in assay [1] (alpha 1a Ki) is < 0.01 µM. As for `O=C1NC2(CCc3cc(F)ccc32)C(=O)N1CCCN1CCC2(CCc3ccccc32)CC1` (stereo not shown) [Compound 14], the Ki in assay [1] (alpha 1a Ki) is < 0.1 µM. For the molecule `N#Cc1cc(F)ccc1C1CCN(CCCN2C(=O)NC3(CCc4cc(F)c(F)cc43)C2=O)CC1` (stereo not shown) [Compound 19], the Ki in assay [1] (read-out: alpha 1a Ki) was < 0.01 µM. Still for that read-out and setting: for `N#Cc1cc(F)ccc1C1CCN(CCCN2C(=O)NC3(CCc4cc(Cl)ccc43)C2=O)CC1` (stereo not shown) [Compound 24] the value was < 0.01 µM. As for `O=C1NC2(CCc3cc(Cl)ccc32)C(=O)N1CCCN1CCC2(CCc3ccccc32)CC1` (stereo not shown) [Compound 28], the Ki in assay [1] (alpha 1a Ki) is < 0.01 µM.
